Assay results reported in US20010051612A1, “2-Thioether A2A receptor agonists” (priority 2000, published 2001).

Assays:
[1] = target: T1, A2A adenosine receptor (Sus scrofa, UniProt K9IW67); experiment: Affinity for the A2A receptor in a pig striatum membrane prep (displacement of tritiated ZM 241385); assay type: binding; details: pig striatal membranes, [3H]ZM 241385 2 nM, 23° C. 2h, Ki from IC50
T1 construct: from tissue; host or cells: pig striatum membranes
Method: Compositions of this invention were assayed to determine their affinity for the A2A receptor in a pig striatum membrane prep. 0.2 mg of pig striatal membranes were treated with adenosine deaminase and 50 mM Tris buffer (pH=7.4) followed by mixing. […] After incubation at 23° C. for 2h, the solutions were filtered using a membrane harvester using multiple washing of the membranes (3×). The filter disks were counted in scintillation cocktail affording the amount of displacement of tritiated ZM by the competitive binding compositions of this invention. Greater than a 5 point curve was used to generate IC50's and the number of experiments (n) is indicated in the column marked in Tables 3-4 below. The Chang-Prusoff equation was used to generate Ki's from the IC50 data.

[2] = target: T2, A1 (Homo sapiens, UniProt P30542); experiment: Affinity for the A1 receptor (Ki column, no method described); assay type: binding; details: compounds 1a-5a table
T2 sequence (P30542 1-326): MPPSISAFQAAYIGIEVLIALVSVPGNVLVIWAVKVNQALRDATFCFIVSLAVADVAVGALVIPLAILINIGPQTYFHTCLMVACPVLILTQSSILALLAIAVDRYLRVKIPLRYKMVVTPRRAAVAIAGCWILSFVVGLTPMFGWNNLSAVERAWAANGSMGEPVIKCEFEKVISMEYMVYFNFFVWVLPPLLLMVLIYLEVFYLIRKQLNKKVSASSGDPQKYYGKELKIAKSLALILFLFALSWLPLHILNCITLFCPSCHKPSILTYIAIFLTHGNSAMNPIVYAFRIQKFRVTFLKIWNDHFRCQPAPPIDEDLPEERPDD

T1 sequence (K9IW67 1-409): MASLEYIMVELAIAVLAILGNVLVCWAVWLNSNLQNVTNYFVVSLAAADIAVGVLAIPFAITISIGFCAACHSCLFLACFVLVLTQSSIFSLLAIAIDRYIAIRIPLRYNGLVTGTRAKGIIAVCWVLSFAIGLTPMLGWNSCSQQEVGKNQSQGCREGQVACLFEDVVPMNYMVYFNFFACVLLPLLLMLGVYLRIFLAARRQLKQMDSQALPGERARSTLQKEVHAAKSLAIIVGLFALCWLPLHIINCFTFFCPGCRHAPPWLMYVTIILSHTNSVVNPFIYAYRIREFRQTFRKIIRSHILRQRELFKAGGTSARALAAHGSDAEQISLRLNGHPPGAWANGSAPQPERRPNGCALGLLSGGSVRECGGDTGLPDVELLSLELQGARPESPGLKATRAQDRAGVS

Structure (SMILES) | Ki ([1]; Table 3, compounds 1-7) [nM] | melting point | Ki ([1]; compounds 1a-5a) [nM] | Ki [2] [nM]
Nc1nc(Sc2ccccc2)nc2c1ncn2[C@@H]1O[C@H](CO)[C@@H](O)[C@H]1O [Compound 1, (4S, 2R, 3R, 5R)-2-(6-amino-2-phenylthiopurin-9-yl)-5-(hydroxymethyl)oxolane-3,4-diol] | > 10000 | 137 to 139 °C |  | 
CCNC(=O)[C@H]1O[C@@H](n2cnc3c(N)nc(Sc4ccccc4)nc32)[C@H](O)[C@@H]1O [Compound 1a, [(2S, 3S, 4R, 5R)-5-(6-amino-2-phenylthiopurin-9-yl)-3,4-dihydroxyoxolan-2yl]-N -ethylcarboxamide] |  | 122 to 125 °C | 6120 | 
Nc1nc(SCc2ccccc2)nc2c1ncn2[C@@H]1O[C@H](CO)[C@@H](O)[C@H]1O [Compound 2, (4S, 2R. 3R, 5R)-2-(6-amino-2-phenylmethylthiopurin-9-yl)-5-(hydroxymethyl)-oxolane-3,4-diol] | 9540 |  |  | 
CCNC(=O)[C@H]1O[C@@H](n2cnc3c(N)nc(SCc4ccccc4)nc32)[C@H](O)[C@@H]1O [Compound 2a, [(2S, 3S, 4R, 5R)-5-(6-amino-2-(phenylmethylthio)purin-9-yl)-3,4-dihydroxyoxolan-2yl]-N-ethylcarboxamide] |  | 245 °C (dec.) | > 10000 | 
CCNC(=O)[C@H]1O[C@@H](n2cnc3c(N)nc(SCCc4ccccc4)nc32)[C@H](O)[C@@H]1O [Compound 3a, [(2S, 3S, 4R, 5R)-5-(6-amino-2-(phenylethylthio)purin-9-yl)-3,4-dihydroxyoxolan-2-yl]-N-ethylcarboxamide] |  | 97 to 99 °C | 85 | > 10000
Nc1nc(SCCCc2ccccc2)nc2c1ncn2[C@@H]1O[C@H](CO)[C@@H](O)[C@H]1O [Compound 4, (4S, 2R, 3R, 5R)-2-(6-amino-2-phenylpropylthiopurin-9-yl)-5-(hydroxymethyl)oxolane-3,4-diol] | > 10000 |  |  | 
CCNC(=O)[C@H]1O[C@@H](n2cnc3c(N)nc(SCCCc4ccccc4)nc32)[C@H](O)[C@@H]1O [Compound 4a, [(2S, 3S, 4R, 5R)-5-(6-amino-2-(phenylpropylthio)purin-9-yl)-3,4-dihydroxyoxolan-2-yl]-N-ethylcarboxamide] |  | 185 to 188 °C | 6280 | 
CCCCCSc1nc(N)c2ncn([C@@H]3O[C@H](CO)[C@@H](O)[C@H]3O)c2n1 [Compound 5, (4S, 2R,3R, 5R)-2-(6-amino-2-pentyltiopurin-9-yl)-5-(hydroxymethymethyl)oxolane-3,4-diol] | > 10000 | 177 °C (dec.) |  | 
CCCCCSc1nc(N)c2ncn([C@@H]3O[C@H](C(=O)NCC)[C@@H](O)[C@H]3O)c2n1 [Compound 5a, [(2S, 3S, 4R, 5R)-5-(6-amino-2-pentylthiopurin-9-yl)-3,4-dihydroxyoxolan-2-yl]-N-ethylcarboxamide] |  | > 270 °C (dec.) | 4310 | 
Nc1nc(SCCCCO)nc2c1ncn2[C@@H]1O[C@H](CO)[C@@H](O)[C@H]1O [Compound 6, (4S, 2R, 3R, 5R)-2-(6-amino-2-(4-hydroxybutylthio)purin-9-yl)-5-(hydroxymethyl)oxolane-3,4-diol] | > 100000 | 88 to 90 °C |  | 
Nc1nc(SC2CCCC2)nc2c1ncn2[C@@H]1O[C@H](CO)[C@@H](O)[C@H]1O [Compound 7, (4S, 2R, 3R, 5R)-2-(6-amino-2-cyclopentylthiopurin-9-yl)-5-(hydroxymethyl)oxolane-3,4-diol] | > 10000 | 213 °C (dec.) |  | 
